Assays:
[1] = test system: promoter region of p68 RNA helicase gene; test: Promoter activity of p68 RNA helicase gene, luciferase reporter assay in COS-1 cells; type: cell-based, monkey; conditions: COS-1 cells co-transfected with pGL3-p68-899 bp or pGL3-p68-1184 bp; pioglitazone final concentration 10 μM; 24 hours; corrected by β-galactosidase activity; FIG. 2
Description: The culture medium was discarded and the cell was washed with phosphate buffered saline(PBS). Per each well, 80 μl each of lysis solution (100 mM potassium phosphate, pH 7.8, 0.2% Triton X-100) was added, for cell lysis. To 20 μl of the cytolytic solution, 100 μl of a luciferase substrate solution (Wako Pure Chemical Co., Ltd.) was added to assay the luminescence with a chemiluminescence meter (Type ML3000; Dynatech Laboratories). Separately, the β-galactosidase activity of the cytolytic solution was assayed with a kit for detecting the β-galactosidase activity (Galacto-Light Plus™ system; TROPIX), and the resulting value was digitized. This was used as the transfection efficiency of introduced gene, to correct the said luciferase activity per each well. Using primers represented by SEQ ID NOS:14 and 15 designed on the basis of the nucleotide sequence of the promoter of p68 RNA helicase gene as previously reported (Rossler, et al., Nucleic Acids Res., Vol. 28, pp. 932-939, 2000) and the human genome DNA sequence (GenBank accession No. AC009994) and additionally using the human genome DNA (Clontech) as template for PCR [using DNA polymerase (LA Taq DNA polymerase; Takara Shuzo Co., Ltd.), and at 98° C. (5 minutes) and subsequently 35 times of a cycle of 96° C. […] After culturing for 48 hours, the luminescence of luciferase was assayed in the same manner as in Example 2. […]

[2] = test system: p68 RNA helicase; test: Expression level of mRNA of p68 RNA helicase during differentiation of 3T3L1 cell into fat cell (real-time PCR); type: cell-based; conditions: 3T3L1 cell in differentiation culture medium; pioglitazone final concentration 1 μM; 24 hours after addition; corrected on G3PDH expression
Description: To a culture plate (60-mm diameter; Asahi Technoglass), 2 ml of the minimum essential culture medium of DMEM (Gibco) supplemented with 10% fetal bovine serum (Sigma) was added and a culture cell 3T3L1 cell was cultured therein to become confluence. Subsequently, the culture medium was replaced with a differentiation culture medium [the minimum essential culture medium DMEM (Gibco) supplemented with insulin (at a final concentration of 10 μg/ml; Sigma), dexamethazone (at a final concentration of […]; Sigma) and 3-isobutyl-1-[…] (at a final concentration of […]; Sigma)], to which pioglitazone (at a final concentration of 1 μM) as an agent for improving insulin resistance was added or was not added. Then, it was examined as to whether or not the expression level of p68 RNA helicase changed between the culture medium with or without adding pioglitazone. 24 hours after pioglitazone addition, the cell was harvested, to extract RNA using an RNA extraction reagent (ISOGEN; Wako Pure Chemical Co., Ltd.) for reverse transcription with a reverse transcription reaction kit (Thermoscript RT-PCR System; Invitrogen). […]

Structure (SMILES): CCc1ccc(CCOc2ccc(CC3SC(=O)NC3=O)cc2)nc1 (single isomer, unassigned; (+)) [pioglitazone, (+)-5-[4-[2-(5-ethyl-2-pyridinyl)ethoxy]benzyl]-2,4-thiazolidinedione]
- promoter activity of p68 RNA helicase gene (luciferase activity) [1]: activated
- expression level of p68 RNA helicase compared with the culture medium without pioglitazone addition [2]: about 1.7 fold
